Source: ChEMBL document CHEMBL5120936, “S-Protected Cysteine Sulfoxide-Enabled Tryptophan-Selective Modification with Application to Peptide Lipidation” (ACS Med Chem Lett, 2022)
Activity calls are given as the source filed them. The rule behind the calls is not given here.

How the values were obtained:
Assay type in all cases: functional, organism-based
Settings in all cases: dose 500.0 µg/kg
[1] = test system: Mus musculus; experiment: Hypoglycemic activity in sixteen hrs fasted wild type C57BL/6 mouse assessed as reduction in blood glucose level at 500 microg/kg, ip followed by oral glucose at 2 g/Kg and measured for 120 mins by OGTT
[2] = test system: Mus musculus; experiment: Hypoglycemic activity in sixteen hrs fasted wild type C57BL/6 mouse assessed as reduction in blood glucose level at 500 microg/kg, ip followed by oral glucose at 2 g/Kg and measured for 150 mins by OGTT
[3] = test system: Mus musculus; experiment: Hypoglycemic activity in sixteen hrs fasted wild type C57BL/6 mouse assessed as increase in insulin concentration at 500 microg/kg, ip followed by oral glucose at 2 g/Kg and measured upto 150 mins by OGTT
[4] = test system: Mus musculus; experiment: Hypoglycemic activity in sixteen hrs fasted wild type C57BL/6 mouse assessed as reduction in glucose concentration at 500 microg/kg, ip followed by oral glucose at 2 g/Kg and measured upto 150 mins by OGTT

Row | Compound | Activity [1] | Activity [2] | Activity [3] | Activity [4]
1 | CCCCCCCCCCCCCCCC(=O)NCCOCCOCC(=O)N[C@@H](CSc1[nH]c2ccccc2c1C[C@H](NC(=O)[C@H](C)NC(=O)[C@@H](NC(=O)[C@H](Cc1ccccc1)NC(=O)[C@H](CCC(=O)O)NC(=O)[C@H](CCCCN)NC(=O)[C@H](C)NC(=O)[C@H](C)NC(=O)[C@H](CCC(N)=O)NC(=O)CNC(=O)[C@H](CCC(=O)O)NC(=O)[C@H](CC(C)C)NC(=O)[C@H](Cc1ccc(O)cc1)NC(=O)[C@H](CO)NC(=O)[C@H](CO)NC(=O)[C@@H](NC(=O)[C@H](CC(=O)O)NC(=O)[C@H](CO)NC(=O)[C@@H](NC(=O)[C@H](Cc1ccccc1)NC(=O)[C@@H](NC(=O)CNC(=O)[C@H](CCC(=O)O)NC(=O)[C@H](C)NC(=O)[C@@H](N)Cc1cnc[nH]1)[C@@H](C)O)[C@@H](C)O)C(C)C)[C@@H](C)CC)C(=O)N[C@@H](CC(C)C)C(=O)N[C@H](C(=O)N[C@@H](CCCCN)C(=O)NCC(=O)N[C@@H](CCCNC(=N)N)C(=O)NCC(=O)O)C(C)C)C(N)=O | Active | Active |  | 
2 | CC[C@H](C)[C@H](NC(=O)[C@H](Cc1ccccc1)NC(=O)[C@H](CCC(=O)O)NC(=O)[C@H](CCCCN)NC(=O)[C@H](C)NC(=O)[C@H](C)NC(=O)[C@H](CCC(N)=O)NC(=O)CNC(=O)[C@H](CCC(=O)O)NC(=O)[C@H](CC(C)C)NC(=O)[C@H](Cc1ccc(O)cc1)NC(=O)[C@H](CO)NC(=O)[C@H](CO)NC(=O)[C@@H](NC(=O)[C@H](CC(=O)O)NC(=O)[C@H](CO)NC(=O)[C@@H](NC(=O)[C@H](Cc1ccccc1)NC(=O)[C@@H](NC(=O)CNC(=O)[C@H](CCC(=O)O)NC(=O)[C@H](C)NC(=O)[C@@H](N)Cc1c[nH]cn1)[C@@H](C)O)[C@@H](C)O)C(C)C)C(=O)N[C@@H](C)C(=O)N[C@@H](Cc1c[nH]c2ccccc12)C(=O)N[C@@H](CC(C)C)C(=O)N[C@H](C(=O)N[C@@H](CCCCN)C(=O)NCC(=O)N[C@@H](CCCN=C(N)N)C(=O)NCC(=O)O)C(C)C |  |  | Active | Active
3 | CCCCCCCCCCCCCCCC(=O)NCCOCCOCCOCCOCCOCCOCC(=O)N[C@@H](CSc1[nH]c2ccccc2c1C[C@H](NC(=O)[C@H](C)NC(=O)[C@@H](NC(=O)[C@H](Cc1ccccc1)NC(=O)[C@H](CCC(=O)O)NC(=O)[C@H](CCCCN)NC(=O)[C@H](C)NC(=O)[C@H](C)NC(=O)[C@H](CCC(N)=O)NC(=O)CNC(=O)[C@H](CCC(=O)O)NC(=O)[C@H](CC(C)C)NC(=O)[C@H](Cc1ccc(O)cc1)NC(=O)[C@H](CO)NC(=O)[C@H](CO)NC(=O)[C@@H](NC(=O)[C@H](CC(=O)O)NC(=O)[C@H](CO)NC(=O)[C@@H](NC(=O)[C@H](Cc1ccccc1)NC(=O)[C@@H](NC(=O)CNC(=O)[C@H](CCC(=O)O)NC(=O)[C@H](C)NC(=O)[C@@H](N)Cc1cnc[nH]1)[C@@H](C)O)[C@@H](C)O)C(C)C)[C@@H](C)CC)C(=O)N[C@@H](CC(C)C)C(=O)N[C@H](C(=O)N[C@@H](CCCCN)C(=O)NCC(=O)N[C@@H](CCCNC(=N)N)C(=O)NCC(=O)O)C(C)C)C(N)=O | Active | Active |  | 
